In brackets after ≈: the same amount, converted by molar mass. Read-outs that look alike come from different tables or passages of the source.

In general, MIC refers to the smallest concentration in the dilution series that meets the test's criterion for growth inhibition. One may read the IC50 as the concentration needed to halve the response being measured.

The subject of one experiment is E. coli DH5α pBC-VIM-2. Briefly: Susceptibility test (microdilution), transformant. Type of experiment: cell-based. How it is done:
(§1) Susceptibility testing, based on the microdilution method, was performed according to the guidelines of the Clinical and Laboratory Standards Institute ([36]).

Experiment [1] concerns the target T1, IMP-1 (Serratia marcescens, UniProt P52699).
T1 construct: made in house
Type of experiment: biochemical. The following applies: IMP-1 with agent (5 mM stock), dialysis. How it is done:
A total of 5 µL of IMP-1 (100 µM) and 2 µL of EDTA (5 mM) or HHIA (5 mM) were mixed in 100 µL of 20 mM HEPES buffer (pH 7.5) pretreated with Chelex 100 resin (Bio-Rad) and incubated on ice for 30 min. The samples were dialyzed against ultrapure water at 4°C for 6 h using Slide-A-Lyzer Dialysis Cassettes (cutoff, 3.5 K) (Thermo Fisher Scientific) and treated with proteinase K (FUJIFILM Wako Pure Chemical Corporation) at 37°C for 1 h. The zinc concentration in the samples was determined using a Zinc Assay Kit (MG Metallogenics).

Experiment [2] has as its target T1, IMP-1. The experiment is classed as binding. The following applies: DSF; control protein 52.5°C. How it is done: The DSF assay was performed using the Protein Thermal Shift Dye Kit (Thermo Fisher Scientific) and StepOnePlus Real-Time PCR Systems (Applied Biosystems) as follows: 2 µL of IMP-1 enzyme (100 µM), 1 µL of EDTA or HHIA solution (5 mM), 2.5 µL of diluted Protein Thermal Shift Dye (32×), 5 µL of Protein Thermal Shift buffer, and 9.5 µL of water were mixed in a test tube and incubated for 15 min at 4°C. Four replicates of each sample were performed. The fluorescence was monitored at 0.7°C increments from 4°C to 99°C. The relative fluorescence units were fitted with the Boltzmann equation using the TSA-CRAFT software to determine the melting point (Tm) ([47]).

Experiment [3] concerns E. cloacae NUBL-5 (IMP-1). Description: Susceptibility test, clinical isolate. The following applies: Enterobacter cloacae. The experiment is classed as cell-based. How it is done: as §1
The subject of another experiment is E. coli 426 (IMP-1). Briefly: Susceptibility test, clinical isolate. The following applies: Escherichia coli. The experiment is classed as cell-based. How it is done:
as §1

The subject of a further experiment is E. coli 465 (IMP-1). Description: Susceptibility test, clinical isolate. The following applies: Escherichia coli. Type of experiment: cell-based. How it is done:
as §1

In a further experiment the test system is E. coli NUBL-22 (IMP-6). Briefly: Susceptibility test, clinical isolate. The experiment is classed as cell-based. The following applies: Escherichia coli. How it is done: as §1
A further experiment deals with E. coli NUBL-24 (IMP-1). Description: Susceptibility test, clinical isolate. Type of experiment: cell-based. The following applies: E. coli NUBL-24 (IMP-1); for MIC: Escherichia coli. How it is done: as §1
The test system of experiment [4] is K. oxytoca NUBL-827 (IMP-1). Briefly: Susceptibility test, clinical isolate. The following applies: Klebsiella oxytoca. The experiment is classed as cell-based. How it is done:
as §1

The subject of experiment [5] is K. pneumoniae AR0034 (IMP-4). Description: Susceptibility test, clinical isolate. Type of experiment: cell-based. The following applies: Klebsiella pneumoniae, K. pneumoniae AR0034 (IMP-4). How it is done: as §1
The subject of experiment [6] is K. pneumoniae AR0076 (VIM-1). Description: Susceptibility test, clinical isolate. Type of experiment: cell-based. The following applies: Klebsiella pneumoniae. How it is done: as §1
Experiment [7] deals with K. pneumoniae MS5674 (NDM-1/VIM-1). Description: Susceptibility test, clinical isolate. The experiment is classed as cell-based. The following applies: Klebsiella pneumoniae. How it is done:
as §1

Experiment [8] concerns K. pneumoniae NUBL-23 (IMP-6). Description: Susceptibility test, clinical isolate. The experiment is classed as cell-based. The following applies: Klebsiella pneumoniae. How it is done:
as §1

Experiment [9] deals with K. pneumoniae NUBL-8 (IMP-1). Description: Susceptibility test, clinical isolate. The experiment is classed as cell-based. The following applies: Klebsiella pneumoniae. How it is done:
as §1

In experiment [10] the test system is P. penneri E11-M475 (IMP-1). Briefly: Susceptibility test, clinical isolate. Type of experiment: cell-based. The following applies: Proteus penneri. How it is done: as §1
Experiment [11] addresses T1, IMP-1. Description: In vitro inhibition assay (IPM hydrolysis). The experiment is classed as biochemical. The following applies: read-out: IC50 for IMP-1. How it is done:
MBLs were incubated with HHIAs in 20 mM HEPES buffer (pH 7.5) containing 200 mM NaCl and 50 µg/mL BSA at 30°C for 5 min. IPM was added at a concentration of 100 µM, and the rate of IPM hydrolysis was monitored at 297 nm. The initial velocity (v0) rates were plotted against HHIA’s logarithmic concentrations, and the data were fitted to a four-parameter variable slope to obtain the half-maximal inhibitor concentration (IC50) values using GraphPad Prism 9 software (GraphPad Software). The inhibition constant (Ki) was determined as follows: v0 was measured after varying the concentrations of IPM and HHIAs, and inverse v0 (1/v0) was plotted against the inverse IPM concentration [1/(IPM)]. Lineweaver–Burk plots were created to obtain Ki values under the competitive inhibition model using the SigmaPlot 14 suite (Hulinks).

A further experiment concerns E. coli DH5α pBC-IMP-1. Briefly: Susceptibility test (microdilution), transformant. Type of experiment: cell-based. How it is done: as §1
In general terms: In broth dilution the organism is exposed to a series of concentrations in liquid medium.

In a further experiment the test system is E. coli DH5α pBC-NDM-1. Description: Susceptibility test (microdilution), transformant. The following applies: E. coli DH5α pBC-NDM-1. Type of experiment: cell-based. How it is done: as §1
A further experiment relates to E. coli DH5α pCL-SMB-1. Briefly: Susceptibility test (microdilution), transformant. Type of experiment: cell-based. The following applies: E. coli DH5α pCL-SMB-1. How it is done: as §1
The subject of experiment [12] is IMP-1-producing E. coli NUBL-24. Briefly: Time-killing assay. Type of experiment: cell-based. The following applies: MPM 1 µg/mL alone. How it is done: The initial density of IMP-1-producing E. coli NUBL-24 (MPM MIC, 8 µg/mL) was adjusted to approximately 5 × 10^6 colony-forming units (cfu)/mL. Either MPM (1 µg/mL) or 9-HHIA/10-HHIA (50 µg/mL) alone or a combination of the two was added to the bacterial solution, and then incubation was performed at 37°C. LB broth containing bacteria alone was used as a control. At 0, 2, 4, 8, and 12 h after adding the agents, an aliquot of the bacterial culture was removed, diluted, and spotted on LB agar plates to count the viable bacterial cells. The detection limit was set at 333 cfu/mL.

[13] abbreviates: IPM alone (Control), read-out: IPM MIC.
[14] abbreviates: MPM alone (Control), read-out: MPM MIC.

T1 sequence (P52699 19-246, looked up, species assumed): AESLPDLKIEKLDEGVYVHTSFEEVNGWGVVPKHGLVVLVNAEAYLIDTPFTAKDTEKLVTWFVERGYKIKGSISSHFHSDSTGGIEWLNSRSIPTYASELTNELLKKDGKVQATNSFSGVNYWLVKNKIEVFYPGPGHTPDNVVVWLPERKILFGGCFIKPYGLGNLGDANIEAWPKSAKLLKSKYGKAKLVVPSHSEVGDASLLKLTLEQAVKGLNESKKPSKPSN

With `CC(C)(O/N=C(\C(=O)N[C@@H]1C(=O)N2C(C(=O)[O-])=C(C[n+]3ccccc3)CS[C@H]12)c1csc(N)n1)C(=O)O` [CAZ, ceftazidime], the minimum inhibitory concentration (MIC) in the experiment on E. coli DH5α pBC-VIM-2 (Escherichia coli, read-out: CAZ MIC, CAZ alone (Control)) lay in the range of 4 to 8 µg/mL (≈ 7.32 to 14.6 µM).

In the case of `O=C(O)CN(CCN(CC(=O)O)CC(=O)O)CC(=O)O` [EDTA, reference compound], the “Zinc ions in IMP-1 after treatment” value on IMP-1 [1] is recorded as “completely lost”. The “Melting temperature (Tm) of treated IMP-1” value on IMP-1 [2] came out at 43.4 °C.

With `C[C@@H](O)[C@H]1C(=O)N2C(C(=O)O)=C(SCCN=CN)C[C@H]12` [IPM, imipenem, reference compound], the MIC in [3] (setting [13]) was 8 µg/mL (≈ 26.7 µM); with E. coli 426 (IMP-1) (setting [13]) it was 8 µg/mL (≈ 26.7 µM); in the experiment on E. coli 465 (IMP-1) (setting [13]), 32 µg/mL (≈ 107 µM); with E. coli NUBL-22 (IMP-6) (setting [13]), 2 µg/mL (≈ 6.68 µM); in the experiment on E. coli NUBL-24 (IMP-1) (setting [13]), 8 µg/mL (≈ 26.7 µM); in [4] (setting [13]), 16 µg/mL (≈ 53.4 µM). Further, the MIC was 4 µg/mL (≈ 13.4 µM) in [5] (setting [13]); 32 µg/mL (≈ 107 µM) in [6] (setting [13]); 32 µg/mL (≈ 107 µM) in experiment [7] (setting [13]); 1 µg/mL (≈ 3.34 µM) in [8] (setting [13]); 4 µg/mL (≈ 13.4 µM) in experiment [9] (setting [13]); more than 64 µg/mL in [10] (setting [13]).

Regarding `C=C(CC(=O)O)C(=O)O` [Itaconic acid, itaconic acid], on IMP-1 [11], the IC50 was more than 1 mM. In addition, the “MPM MIC” value in the experiment with E. coli DH5α pBC-IMP-1 (+agent 6.25 μg/mL) was 1 µg/mL; in the experiment on E. coli DH5α pBC-IMP-1 (+agent 25 μg/mL), 1 µg/mL; in the experiment on E. coli DH5α pBC-IMP-1 (+agent 100 μg/mL) it was 1 µg/mL; with E. coli DH5α pBC-NDM-1 (+agent 6.25 μg/mL) it was more than 64 µg/mL; in the experiment on E. coli DH5α pBC-NDM-1 (+agent 25 μg/mL), more than 64 µg/mL; in the experiment with E. coli DH5α pBC-NDM-1 (+agent 100 μg/mL), more than 64 µg/mL. The “MPM MIC” value in the experiment on E. coli DH5α pCL-SMB-1 (+agent 6.25 μg/mL), in the experiment with E. coli DH5α pCL-SMB-1 (+agent 25 μg/mL) and in the experiment with E. coli DH5α pCL-SMB-1 (+agent 100 μg/mL) was 32 µg/mL throughout. The “CAZ MIC” value with E. coli DH5α pBC-VIM-2 (+agent 6.25 μg/mL), with E. coli DH5α pBC-VIM-2 (+agent 25 μg/mL) and with E. coli DH5α pBC-VIM-2 (+agent 100 μg/mL) was 8 µg/mL each time.

Turning to `C[C@@H](O)[C@H]1C(=O)N2C(C(=O)O)=C(S[C@@H]3CN[C@H](C(=O)N(C)C)C3)[C@H](C)[C@H]12` [MPM, meropenem, reference compound], the MIC in the experiment with E. coli DH5α pBC-IMP-1 (Escherichia coli, read-out: MPM MIC, MPM alone (Control)) amounted to 1 µg/mL (≈ 2.61 µM); in experiment [3] (setting [14]), 16 µg/mL (≈ 41.7 µM); in the experiment on E. coli 426 (IMP-1) (setting [14]) it was 16 µg/mL (≈ 41.7 µM); in the experiment with E. coli 465 (IMP-1) (setting [14]) it was 32 µg/mL (≈ 83.4 µM); in the experiment with E. coli NUBL-22 (IMP-6) (setting [14]), 32 µg/mL (≈ 83.4 µM); with E. coli NUBL-24 (IMP-1) (setting [14]) it was 8 µg/mL (≈ 20.9 µM). Further, the minimal inhibitory concentration (MIC) in experiment [4] (setting [14]) is 32 µg/mL (≈ 83.4 µM); in experiment [5] (setting [14]), 8 µg/mL (≈ 20.9 µM); in [6] (setting [14]) it was 32 µg/mL (≈ 83.4 µM); in experiment [7] (setting [14]), more than 64 µg/mL; in [8] (setting [14]) it was 64 µg/mL (≈ 167 µM); in experiment [9] (setting [14]), 16 µg/mL (≈ 41.7 µM). In addition, in experiment [10] (setting [14]), the MIC is more than 64 µg/mL. Besides, the “MPM MIC” value is 1 µg/mL in the experiment with E. coli DH5α pBC-IMP-1 (MPM alone (Control)) and 8 µg/mL with E. coli NUBL-24 (IMP-1) (MPM alone (Control)). Moreover, the “Time-kill: MPM alone” value in experiment [12] is reported as “regrew close to the control level at 12 h”.

The values are drawn from PMC10913484, “Hydroxyhexylitaconic acids as potent IMP-type metallo-β-lactamase inhibitors for controlling carbapenem resistance in Enterobacterales” (Microbiology Spectrum, 2024).
